Our source for the IC50 values is article PMC10095686, “Evaluation of the Anticancer Activity and Mechanism Studies of Glycyrrhetic Acid Derivatives toward HeLa Cells” (Molecules, 2023).

Assay type in all cases: cell-based
The test system of test [1] is LO2. Kind of test: MTT cytotoxicity assay, normal cells. The note with it: Homo sapiens, L02, 48 h. As to the method:
(§1) The effects of compounds on cells proliferation were evaluated using the 3-(4,5-dimethylthiazol-2-yl)-2,5-diphenyltetrazolium bromide (MTT) assay. […] The cells were placed in 96-well plates and treated overnight at 37 °C and 5% CO2. When the cells grew to about 80%, they were treated with different concentrations of compound 3a for 48 h. Then, the culture medium was removed and MTT solution was added. After 4 h, the absorbance values were measured at 490 nm. In addition, the IC50 values were calculated with SPSS (Statistical Product and Service Solutions).

Test [2] has as its system SGC-7901. Kind of test: MTT cytotoxicity assay. The note with it: Homo sapiens, 48 h. The protocol: as §1
The test system of test [3] is HeLa. Description: MTT cytotoxicity assay. Particulars: Homo sapiens, 48 h. As to the method:
as §1

Test [4] concerns A549. Kind of test: MTT cytotoxicity assay. The note with it: Homo sapiens, 48 h. As to the method: as §1
Test [5] concerns B16. Kind of test: MTT cytotoxicity assay. The note with it: Mus musculus, 48 h. The protocol: as §1
For test [6], the system named is BEL-7402. Kind of test: MTT cytotoxicity assay. Particulars: Homo sapiens, 48 h. The protocol:
as §1

Turning to `Cc1ccc(OC(=O)[C@@]2(C)CC[C@]3(C)CC[C@]4(C)C(=CC(=O)C5[C@@]6(C)CC[C@H](O)C(C)(C)C6CC[C@]54C)[C@@H]3C2)cc1` (stereo partly drawn) [Compound 3e, p-Tolyl 3β-hydroxy-11-oxo-olean-12-en-30-oate], the IC50 in test [1] is 36.7 ± 3 µM; in test [2], 73.1 ± 5.6 µM; in test [3], 26.6 ± 1.5 µM; in test [4] it was 21.2 ± 1.1 µM; in test [5], 43.4 ± 3.6 µM; in test [6], > 100 µM.

Consider `CC1(C)C2CC[C@]3(C)C(C(=O)C=C4[C@@H]5C[C@@](C)(C(=O)Oc6ccc([N+](=O)[O-])cc6)CC[C@]5(C)CC[C@]43C)[C@@]2(C)CC[C@@H]1O` (stereo partly drawn) [Compound 3d, 4-Nitrophenyl 3β-hydroxy-11-oxo-olean-12-en-30-oate], for which the IC50 in test [1] stood at 78.7 ± 4.4 µM; in test [2], 32.1 ± 4.4 µM; in test [3], 23.2 ± 0.89 µM; in test [4], 26.9 ± 1.5 µM; in test [5], 39.1 ± 4.7 µM; in test [6], 26.4 ± 3.2 µM.

On to `CC1(C)C2CC[C@]3(C)C(C(=O)C=C4[C@@H]5C[C@@](C)(C(=O)Oc6ccc(F)cc6)CC[C@]5(C)CC[C@]43C)[C@@]2(C)CC[C@@H]1O` (stereo partly drawn) [Compound 3c, 4-Fluorophenyl 3β-hydroxy-11-oxo-olean-12-en-30-oate], for which the IC50 was 74.2 ± 5.5 µM in test [1]; 43.5 ± 3.8 µM in test [2]; 38 ± 6.4 µM in test [3]; 45.3 ± 3.4 µM in test [4]; 56.7 ± 4.5 µM in test [5]; > 100 µM in test [6].

Turning to `COc1ccc(OC(=O)[C@@]2(C)CC[C@]3(C)CC[C@]4(C)C(=CC(=O)C5[C@@]6(C)CC[C@H](O)C(C)(C)C6CC[C@]54C)[C@@H]3C2)cc1` (stereo partly drawn) [Compound 3f, 4-Methoxyphenyl 3β-hydroxy-11-oxo-olean-12-en-30-oate], the IC50 is 71.7 ± 2.6 µM in test [1]; 69.2 ± 13.3 µM in test [2]; 45.5 ± 2.1 µM in test [3]; 32.7 ± 1.7 µM in test [4]; 48.3 ± 1.2 µM in test [5]; 41.6 ± 2.3 µM in test [6].

Consider `CC1(C)C2CC[C@]3(C)C(C(=O)C=C4[C@@H]5C[C@@](C)(C(=O)Oc6ccc(Cl)cc6)CC[C@]5(C)CC[C@]43C)[C@@]2(C)CC[C@@H]1O` (stereo partly drawn) [Compound 3b, 4-Chlorophenyl 3β-hydroxy-11-oxo-olean-12-en-30-oate], for which the IC50 in test [1] came to 32.4 ± 7.4 µM; in test [2] it was 44.9 ± 5.9 µM; in test [3] it was 24 ± 0.8 µM; in test [4] it was 17.7 ± 2 µM; in test [5], 44.4 ± 5.7 µM; in test [6], 39.9 ± 4.5 µM.

Consider `CC1(C)[C@@H](O)CC[C@]2(C)[C@H]3C(=O)C=C4[C@@H]5C[C@@](C)(C(=O)O)CC[C@]5(C)CC[C@@]4(C)[C@]3(C)CC[C@@H]12` [GA, 18β-glycyrrhetinic acid, reference compound], for which the IC50 came out at 87.5 ± 5.5 µM in test [1]; 75.9 ± 10.8 µM in test [2]; 62.9 ± 3.4 µM in test [3]; 61.1 ± 12.5 µM in test [4]; 57.6 ± 5.8 µM in test [5]; 45.9 ± 3.6 µM in test [6].
